Results from PMC9307089 (Journal of medicinal chemistry, 2021).
Read-outs that look alike come from different tables or passages of the source. Each block holds one molecule with its values, some of them ahead of it.

How the values were obtained:
[1] = Mouse plasma protein binding; type: in vitro ADME
thrombin = thrombin (Homo sapiens, UniProt P00734); test: Chromogenic kinetic enzyme assay, thrombin; type: biochemical
[2] = biological target: T1, recombinant serine protease domain of HGFA (Homo sapiens, UniProt Q04756); test: Fluorescent kinetic enzyme inhibition assay, HGFA; type: biochemical
T1 sequence (Q04756 408-646 limits assumed): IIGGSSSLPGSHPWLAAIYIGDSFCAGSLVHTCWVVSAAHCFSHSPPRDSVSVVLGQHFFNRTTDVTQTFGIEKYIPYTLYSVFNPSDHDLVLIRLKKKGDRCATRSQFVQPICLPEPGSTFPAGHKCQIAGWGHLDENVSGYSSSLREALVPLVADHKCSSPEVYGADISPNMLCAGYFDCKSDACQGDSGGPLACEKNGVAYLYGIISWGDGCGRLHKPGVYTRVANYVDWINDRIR

[3] = Mouse pharmacokinetics, IP dosing; settings: for duration of compound exposure (detectable compound) in plasma: monitored for 24 h
[4] = In vitro stability in human plasma; type: in vitro ADME
[5] = In vitro stability in mouse plasma; type: in vitro ADME
H596 lung cancer cells = test: Pro-HGF-mediated growth of H596 cells in vitro; type: cell-based; settings: pro-HGF 50 ng/ml; JNJ 500 nM, nafamostat […], ZFH7116 10 μM
[6] = read-out: Thrombin IC50, chromogenic substrate S2238

SMILES: CC(=O)N[C@H]1CCCCNC(=O)CC[C@@H](C(=O)N[C@@H](CCCNC(=N)N)C(=O)c2nc3ccccc3s2)NC(=O)[C@H](CCCNC(=N)N)NC1=O [Compound 17, Ac-cyclo(KRE)-R- ketobenzothiazole]
Mouse PPB (% free) [1]: 25.9 % free

SMILES: CC(=O)N[C@H]1CC(=O)NCCCC[C@@H](C(=O)N[C@@H](CCCNC(=N)N)C(=O)c2nc3ccccc3s2)NC(=O)[C@H](C)NC1=O [Compound 23, Ac-cyclo(DAK)-R- ketobenzothiazole]
IC50 (thrombin; [6]): > 20 µM

SMILES: CC(=O)N[C@H]1CCC(=O)NCCCC[C@@H](C(=O)N[C@@H](CCCNC(=N)N)C(=O)c2nc3ccccc3s2)NC(=O)[C@H](CC(C)C)NC1=O [Compound 19, Ac-cyclo(ELK)-R- ketobenzothiazole]
IC50 [2]: > 20 µM | Mouse PPB (% free) [1]: 6.0 % free | IC50 (thrombin): > 20 µM | duration of compound exposure (detectable compound) in plasma ([3]; IP 20 mg/kg): ≤ 8 h | half-life ([3]; mouse, plasma, ip, 20 mg/kg): < 0.5 h | half-life [4]: > 4.82 h | half-life [5]: 2.62 h

SMILES: Cn1cc(-c2ccc3nnc(C(F)(F)c4ccc5ncccc5c4)n3n2)cn1 [JNJ-38877605]
pro-HGF-mediated growth of H596 cells (H596 lung cancer cells): inhibited the pro-HGF-mediated growth of H596 cells

SMILES: CC(=O)N[C@H]1CCCCNC(=O)CC[C@@H](C(=O)N[C@@H](CCCNC(=N)N)C(=O)c2nc3ccccc3s2)NC(=O)[C@H](CC(C)C)NC1=O [Compound 16, Ac-cyclo(KLE)-R-ketobenzothiazole]
Mouse PPB (% free) [1]: 18.4 % free | duration of compound exposure (detectable compound) in plasma ([3]; IP 20 mg/kg): ≤ 8 h

SMILES: N=C(N)Nc1ccc(C(=O)Oc2ccc3cc(C(=N)N)ccc3c2)cc1 [Nafamostat]
pro-HGF-mediated growth of H596 cells (H596 lung cancer cells): inhibited the pro-HGF-mediated growth of H596 cells

SMILES: CC(=O)N[C@H]1CC(=O)NCCCC[C@@H](C(=O)N[C@@H](CCCNC(=N)N)C(=O)c2nc3ccccc3s2)NC(=O)CNC1=O [Compound 22, Ac-cyclo(DGK)-R- ketobenzothiazole]
IC50 (thrombin; [6]): > 20 µM

SMILES: CC(=O)N[C@H]1CCCCNC(=O)C[C@@H](C(=O)N[C@@H](CCCNC(=N)N)C(=O)c2nc3ccccc3s2)NC(=O)[C@H](CC(C)C)NC1=O [Compound 15, Ac-cyclo(KLD)-R-ketobenzothiazole]
Mouse PPB (% free) [1]: 85.3 % free

SMILES: CC(=O)N[C@H]1CC(=O)NCCCC[C@@H](C(=O)N[C@@H](CCCNC(=N)N)C(=O)c2nc3ccccc3s2)NC(=O)[C@H](Cc2ccccc2)NC1=O [Compound 29, Ac-cyclo(DFK)-R- ketobenzothiazole]
AUC in mice (in words) ([3]; IP 20 mg/kg): comparable to 18

Second part, the molecule after the results:

IC50 (thrombin; [6]): > 20 µM
SMILES: CC(=O)N[C@H]1CC(=O)NCCCC[C@@H](C(=O)N[C@@H](CCCNC(=N)N)C(=O)c2nc3ccccc3s2)NC(=O)[C@H](CCC(N)=O)NC1=O [Compound 26, Ac-cyclo(DQK)-R- ketobenzothiazole]

IC50 (thrombin; [6]): > 20 µM
SMILES: CC(=O)N[C@H]1CC(=O)NCCCC[C@@H](C(=O)N[C@@H](CCCNC(=N)N)C(=O)c2nc3ccccc3s2)NC(=O)[C@H](C(C)C)NC1=O [Compound 24, Ac-cyclo(DVK)-R- ketobenzothiazole]

IC50 (thrombin; [6]): > 20 µM
SMILES: CC(=O)N[C@H]1CC(=O)NCCCC[C@@H](C(=O)N[C@@H](CCCNC(=N)N)C(=O)c2nc3ccccc3s2)NC(=O)[C@H]([C@@H](C)O)NC1=O [Compound 27, Ac-cyclo(DTK)-R- ketobenzothiazole]

IC50 (thrombin; [6]): > 20 µM
SMILES: CC(=O)N[C@H]1CC(=O)NCCCC[C@@H](C(=O)N[C@@H](CCCNC(=N)N)C(=O)c2nc3ccccc3s2)NC(=O)[C@H](Cc2ccc(O)cc2)NC1=O [Compound 30, Ac-cyclo(DYK)-R- ketobenzothiazole]

IC50 (thrombin; [6]): > 20 µM
SMILES: CC(=O)N[C@H]1CC(=O)NCCCC[C@@H](C(=O)N[C@@H](CCCNC(=N)N)C(=O)c2nc3ccccc3s2)NC(=O)[C@H](CC(N)=O)NC1=O [Compound 25, Ac-cyclo(DNK)-R- ketobenzothiazole]
